Assay results as given in publication PMC6328172, “5-HT2 receptor binding, functional activity and selectivity in N-benzyltryptamines” (PLoS ONE, 2019).

Assays:
human 5-HT2A receptor [1] = molecular target: T1, human 5-HT2A receptor (Homo sapiens, UniProt P28223); test: Competition binding to the human 5-HT2A receptor ([3H]ketanserin, CHO-5-HT2A membranes); settings: for Selectivity 5-HT2A/2C (binding): from Ki values, Table 1; for Ki: human receptor, [3H]ketanserin displacement, no unit in the table, nM, read-out: 5-HT2A Ki (in parentheses) (converted); for inhibition at 10 µM: values marked *
T1 construct: expressed in transfected cells; host or cells: CHO (CHO-5-HT2A cell line)

human 5-HT2B receptor = human 5-HT2B receptor (Homo sapiens, UniProt P41595); test: Competition binding to the human 5-HT2B receptor ([3H]LSD, CHO-5-HT2B membranes)
human 5-HT2C receptor [2] = molecular target: T2, human 5-HT2C receptor (Homo sapiens, UniProt P28335); test: Ca2+ mobilization in HeLa h5-HT2C cells; assay type: cell-based; settings: for EC50: Ca2+ mobilization, no unit in the table, nM, read-out: 5-HT2C EC50 (in parentheses) (converted); for Emax: HeLa, read-out: 5-HT2C % Emax; for Selectivity 5-HT2C/2A (functional, in parentheses): from EC50 values, Table 2
T2 construct: expressed in transfected cells; host or cells: HeLa (HeLa-5-HT2C cell line)
T2 sequence (P28335 33-458): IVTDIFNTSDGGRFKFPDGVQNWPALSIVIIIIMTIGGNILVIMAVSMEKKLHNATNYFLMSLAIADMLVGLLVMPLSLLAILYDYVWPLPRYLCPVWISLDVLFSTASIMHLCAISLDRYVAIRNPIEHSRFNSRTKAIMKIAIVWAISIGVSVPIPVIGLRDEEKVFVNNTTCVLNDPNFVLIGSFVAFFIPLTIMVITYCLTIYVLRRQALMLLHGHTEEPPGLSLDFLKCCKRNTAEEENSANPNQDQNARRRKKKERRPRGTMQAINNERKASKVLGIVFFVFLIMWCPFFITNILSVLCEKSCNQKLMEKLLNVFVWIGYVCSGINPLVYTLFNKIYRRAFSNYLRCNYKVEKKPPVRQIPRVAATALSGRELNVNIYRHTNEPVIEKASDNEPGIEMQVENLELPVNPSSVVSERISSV

human 5-HT2A receptor [3] = molecular target: T1, human 5-HT2A receptor; test: Ca2+ mobilization in CHO h5-HT2A cells; assay type: cell-based; settings: for EC50: Ca2+ mobilization, no unit in the table, nM, read-out: 5-HT2A EC50 (in parentheses) (converted); for Selectivity 5-HT2A/2C (functional): from EC50 values, Table 2; for Emax: relative efficacy, % of response to 5-HT
human 5-HT2C receptor [4] = molecular target: T2, human 5-HT2C receptor; test: Competition binding to the human 5-HT2C receptor ([3H]mesulergine, HeLa-5-HT2C membranes); settings: for Selectivity 5-HT2C/2A (binding, in parentheses): from Ki values, Table 1; for Ki: human receptor, [3H]mesulergine displacement, no unit in the table, nM, read-out: 5-HT2C Ki (in parentheses) (converted); for inhibition at 10 µM: values marked *

human 5-HT2B receptor, sequence (P41595 whole entry): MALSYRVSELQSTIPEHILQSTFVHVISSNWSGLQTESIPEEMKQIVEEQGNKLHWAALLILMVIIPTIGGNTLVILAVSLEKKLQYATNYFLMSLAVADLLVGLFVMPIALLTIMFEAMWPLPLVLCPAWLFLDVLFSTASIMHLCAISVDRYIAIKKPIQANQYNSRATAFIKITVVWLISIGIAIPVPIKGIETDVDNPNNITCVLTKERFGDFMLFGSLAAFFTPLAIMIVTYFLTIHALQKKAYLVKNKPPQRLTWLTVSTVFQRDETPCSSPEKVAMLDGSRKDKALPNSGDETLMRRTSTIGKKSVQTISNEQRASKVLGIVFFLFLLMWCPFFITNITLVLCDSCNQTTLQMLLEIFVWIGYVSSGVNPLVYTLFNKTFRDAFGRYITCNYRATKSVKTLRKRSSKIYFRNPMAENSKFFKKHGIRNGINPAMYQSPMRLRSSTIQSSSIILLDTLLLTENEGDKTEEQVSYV
T1 sequence (P28223 whole entry): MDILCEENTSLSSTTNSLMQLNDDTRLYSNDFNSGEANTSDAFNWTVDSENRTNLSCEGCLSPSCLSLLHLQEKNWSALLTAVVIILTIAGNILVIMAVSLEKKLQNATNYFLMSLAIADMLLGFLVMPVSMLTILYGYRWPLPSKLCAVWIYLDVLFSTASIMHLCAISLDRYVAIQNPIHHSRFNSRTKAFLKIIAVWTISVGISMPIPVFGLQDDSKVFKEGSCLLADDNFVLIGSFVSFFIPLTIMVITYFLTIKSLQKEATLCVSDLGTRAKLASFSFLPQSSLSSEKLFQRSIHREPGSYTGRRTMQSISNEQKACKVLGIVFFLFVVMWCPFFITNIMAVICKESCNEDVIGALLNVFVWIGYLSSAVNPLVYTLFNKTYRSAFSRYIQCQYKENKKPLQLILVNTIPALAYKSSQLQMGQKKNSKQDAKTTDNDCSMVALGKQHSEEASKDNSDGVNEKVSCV

| SMILES | Selectivity 5-HT2A/2C (binding) (human 5-HT2A receptor [1]) | Ki (human 5-HT2A receptor [1]) [nM] | Ki (human 5-HT2B receptor) [nM] | EC50 (human 5-HT2C receptor [2]) [nM] | Emax (human 5-HT2C receptor [2]) [%] | Selectivity 5-HT2C/2A (functional, in parentheses) (human 5-HT2C receptor [2]) | EC50 (human 5-HT2A receptor [3]) [nM] | Selectivity 5-HT2A/2C (functional) (human 5-HT2A receptor [3]) | Emax (human 5-HT2A receptor [3]) [%] | Selectivity 5-HT2C/2A (binding, in parentheses) (human 5-HT2C receptor [4]) | Ki (human 5-HT2C receptor [4]) [nM] | inhibition at 10 µM (human 5-HT2A receptor [1]) [%] | inhibition at 10 µM (human 5-HT2C receptor [4]) [%] |
| --- | --- | --- | --- | --- | --- | --- | --- | --- | --- | --- | --- | --- | --- |
| COc1ccc(F)cc1CNCCc1c[nH]c2ccccc12 [Compound 25, N-(5-Fluoro-2-methoxybenzyl)-[2-(1H-indol-3-yl)ethyl]amine] | 0.42 | 363 | 95.5 | 52.5 | 110 ± 2.19 | 1.15 | 60.3 | 0.87 | 58 ± 1.95 | 2.40 | 151 |  |  |
| COc1ccc2[nH]cc(CCNCc3ccccc3)c2c1 [Compound 37, N-Benzyl-[2-(5-methoxy-1H-indol-3-yl)ethyl]amine] | 2.93 | 33.1 | 16.6 | 14.4 | 113 ± 3.47 | 1.41 | 20.4 | 0.71 | 63.2 ± 1.44 | 0.34 | 95.5 |  |  |
| Oc1cccc(F)c1CNCCc1c[nH]c2ccccc12 [Compound 34, N-(6-Fluoro-2-hydroxybenzyl)-[2-(1H-indol-3-yl)ethyl]amine] |  | 229 | 115 | 18.6 | 91.7 ± 6.6 | 2.13 | 39.8 | 0.47 | 49.3 ± 3.23 |  | 155 |  |  |
| COc1ccc(CNCCc2c[nH]c3ccccc23)cc1 [Compound 13, N-(4-Methoxybenzyl)-[2-(1H-indol-3-yl)ethyl]amine] |  | 457 |  | 8.32 | 91.4 ± 2.03 |  | 45.7 |  | 108 ± 2.78 |  | 355 |  |  |
| c1ccc(CNCCc2c[nH]c3ccccc23)cc1 [Compound 1, N-Benzyl-[2-(1H-indol-3-yl)ethyl]amine] | 0.75 | 245 | 100 | 50.1 | 121 ± 6.58 | 3.24 | 162 | 0.31 | 61.6 ± 5.17 | 1.33 | 186 |  |  |
| Cc1ccc(O)c(CNCCc2c[nH]c3ccccc23)c1 [Compound 23, N-(2-Hydroxy-5-methylbenzyl)-[2-(1H-indol-3-yl)ethyl]amine] | 0.36 | 741 | 155 | 100 | 89.4 ± 3.86 | 1.10 | 110 | 0.91 | 43.6 ± 0.9 | 2.77 | 269 |  |  |
| Oc1cc(Br)ccc1CNCCc1c[nH]c2ccccc12 [Compound 31, N-(4-Bromo-2-hydroxybenzyl)-[2-(1H-indol-3-yl)ethyl]amine] | 0.38 | 1550 | 110 | 813 | 74.8 ± 2.6 | 30.2 | 24500 | 0.033 | 62.5 ± 10.8 | 2.63 | 603 |  |  |
| Fc1cccc(CNCCc2c[nH]c3ccccc23)c1 [Compound 9, N-(3-Fluorobenzyl)-[2-(1H-indol-3-yl)ethyl]amine] | 0.84 | 257 | 126 | 112 | 112 ± 4.84 | 3.47 | 389 | 0.29 | 33.8 ± 4.01 | 1.19 | 214 |  |  |
| COc1ccc(CNCCc2c[nH]c3ccccc23)c(OC)c1 [Compound 32, N-(2,4-Dimethoxybenzyl)-[2-(1H-indol-3-yl)ethyl]amine] | 0.41 | 661 | 234 | 240 | 117 ± 4.59 |  |  |  |  | 2.44 | 269 |  |  |
| Oc1ccc(CNCCc2c[nH]c3ccccc23)cc1 [Compound 12, N-(4-Hydroxybenzyl)-[2-(1H-indol-3-yl)ethyl]amine] | 1.09 | 912 | 490 | 145 | 99.7 ± 2.81 |  |  |  |  | 0.92 | 1000 |  |  |
| Cc1ccc(CNCCc2c[nH]c3ccccc23)cc1 [Compound 14, N-(4-Methylbenzyl)-[2-(1H-indol-3-yl)ethyl]amine] | 0.81 | 417 | 74.1 | 1200 | 100 ± 5.36 |  |  |  |  | 1.23 | 331 |  |  |
| Oc1ccc(Br)cc1CNCCc1c[nH]c2ccccc12 [Compound 26, N-(5-Bromo-2-hydroxybenzyl)-[2-(1H-indol-3-yl)ethyl]amine] | 2.39 | 309 |  | 708 | 108 ± 2.88 |  |  |  |  | 0.42 | 724 |  |  |
| O=[N+]([O-])c1ccc(O)c(CNCCc2c[nH]c3ccccc23)c1 [Compound 30, N-(5-Nitro-2-hydroxybenzyl)-[2-(1H-indol-3-yl)ethyl]amine] |  |  | 891 |  |  |  |  |  |  |  |  | 8 ± 4 | 31 ± 4 |
| Oc1c(Br)cc(Br)cc1CNCCc1c[nH]c2ccccc12 [Compound 35, N-(3,5-Dibromo-2-hydroxybenzyl)-[2-(1H-indol-3-yl)ethyl]amine] |  |  | 6030 |  |  |  |  |  |  |  |  | 12 ± 4 | 26 ± 4 |
| NCCc1c[nH]c2ccccc12 [Tryptamine] |  |  | 110 | 1.17 | 108 ± 3.43 |  |  |  | 97.6 ± 2.34 |  | 95.5 |  |  |
| COc1cccc(CNCCc2c[nH]c3ccccc23)c1OC [Compound 20, N-(2,3-Dimethoxybenzyl)-[2-(1H-indol-3-yl)ethyl]amine] | 0.73 | 1510 | 195 | 3630 | 117 ± 9.18 |  |  |  |  | 1.37 | 1120 |  |  |
| O=[N+]([O-])c1ccc(CNCCc2c[nH]c3ccccc23)cc1 [Compound 18, N-(4-Nitrobenzyl)-[2-(1H-indol-3-yl)ethyl]amine] | 0.54 | 2630 | 200 | 525 | 92 ± 8.69 |  |  |  |  | 1.85 | 1410 |  |  |
